Test results from PMC4297251 (Investigational new drugs, 2014).

Columns and labels:
multiple animal models = conditions: oral dosing; cited from earlier work
clinical = conditions: human, in vivo; for AUC(0-inf): AUC0→∞
refractory solid tumors = test: Antitumor activity by RECIST 1.1; assay type: in vivo, human; conditions: 30 patients, all dose levels, with capecitabine
[1] = tested on: patients with refractory solid tumors; test: Phase I dose escalation of RO4929097 with capecitabine: toxicity / DLT; assay type: in vivo
[2] = n=30, worst grade, at least possibly related, with capecitabine

## CC(C)(C(=O)NCC(F)(F)C(F)(F)F)C(=O)N[C@@H]1C(=O)Nc2ccccc2-c2ccccc21 [RO4929097]
Multiple animal models
  efficacy maintained post-dosing: up to 90 days
clinical; 20 mg
  Cmax: 358.3 ng/mL
  Half Life: 30.7 h
  half-life: 36.2 h
clinical; 20 mg, Cmax
  Cmax: 646 ng/mL
clinical; 30 mg
  AUC0→∞: 16609.4 ng·h/mL
  Cmax: 668.5 ng/mL
  Vd: 88.7 L/h
  AUC(0-inf): 25900 ng·h/mL
clinical; 30 mg, Cmax
  Cmax: 656 ng/mL
clinical; 30 mg, Vd
  Vd: 53 L
clinical; 45 mg
  Half Life: 9.5 h
  Vd: 118.9 L/h
  half-life: 17.8 h
clinical; 45 mg, Vd
  Vd: 63.3 L
clinical; 68 mg
  AUC0→∞: 18050.7 ng·h/mL
  Cmax: 1011.7 ng/mL
  Half Life: 16.0 h
  AUC(0-inf): 34400 ng·h/mL
  half-life: 15.9 h
clinical; 68 mg, Cmax
  Cmax: 1640 ng/mL
clinical; 100 mg
  AUC0→∞: 32748.6 ng·h/mL
  Cl: 3953.9 mL/h
  Cmax: 1473.2 ng/mL
  Half Life: 19.8 h
  AUC(0-inf): 51900 ng·h/mL
  half-life: 13.4 h
clinical; 100 mg, Cl
  clearance: 43.3 mL/min
clinical; 100 mg, Cmax
  Cmax: 2390 ng/mL
clinical; 150 mg
  Vd: 168.2 L/h
clinical; 150 mg, Vd
  Vd: 154 L
Refractory solid tumors
  progressive disease as best response, patients: 60%
Refractory solid tumors; after three or more cycles
  stable disease as best response, patients: 30%
[1]; human, in vivo
  Anemia, Grade 1: 0 n (%)
  Anemia, Grade 2: 2 (7) n (%)
  Anemia, Grade 3: 1 (3) n (%)
  Anemia, Grade 4: 0 n (%)
  Anemia, Overall: 3 (10) n (%)
  Anorexia, Grade 1: 5 (17) n (%)
  Anorexia, Grade 2: 2 (7) n (%)
  Anorexia, Grade 3: 0 n (%)
  Anorexia, Grade 4: 0 n (%)
  Anorexia, Overall: 7 (23) n (%)
  Chills, Grade 1: 3 (10) n (%)
  Chills, Grade 2: 0 n (%)
  Chills, Grade 3: 0 n (%)
  Chills, Grade 4: 0 n (%)
  Chills, Overall: 3 (10) n (%)
  Diarrhea, Grade 1: 9 (30) n (%)
  Diarrhea, Grade 2: 4 (13) n (%)
  Diarrhea, Grade 3: 1 (3) n (%)
  Diarrhea, Grade 4: 0 n (%)
  Diarrhea, Overall: 14 (47) n (%)
  Dry skin, Grade 1: 5 (17) n (%)
  Dry skin, Grade 2: 0 n (%)
  Dry skin, Grade 3: 0 n (%)
  Dry skin, Grade 4: 0 n (%)
  Dry skin, Overall: 5 (17) n (%)
  Fatigue, Grade 1: 6 (20) n (%)
  Fatigue, Grade 2: 8 (27) n (%)
  Fatigue, Grade 3: 2 (7) n (%)
  Fatigue, Grade 4: 0 n (%)
  Fatigue, Overall: 16 (53) n (%)
  Headache, Grade 1: 9 (30) n (%)
  Headache, Grade 2: 0 n (%)
  Headache, Grade 3: 0 n (%)
  Headache, Grade 4: 0 n (%)
  Headache, Overall: 9 (30) n (%)
  Hypokalemia, Grade 1: 1 (3) n (%)
  Hypokalemia, Grade 2: 1 (3) n (%)
  Hypokalemia, Grade 3: 2 (7) n (%)
  Hypokalemia, Grade 4: 0 n (%)
  Hypokalemia, Overall: 4 (13) n (%)
  Hypophosphatemia, Grade 1: 0 n (%)
  Hypophosphatemia, Grade 2: 8 (27) n (%)
  Hypophosphatemia, Grade 3: 6 (20) n (%)
  Hypophosphatemia, Grade 4: 0 n (%)
  Hypophosphatemia, Overall: 14 (47) n (%)
  Nausea, Grade 1: 17 (57) n (%)
  Nausea, Grade 2: 2 (7) n (%)
  Nausea, Grade 3: 2 (7) n (%)
  Nausea, Grade 4: 0 n (%)
  Nausea, Overall: 21 (70) n (%)
  Pain in legs, Grade 1: 4 (13) n (%)
  Pain in legs, Grade 2: 0 n (%)
  Pain in legs, Grade 3: 0 n (%)
  Pain in legs, Grade 4: 0 n (%)
  Pain in legs, Overall: 4 (13) n (%)
  Palmar-plantar erythrodysesthesia syndrome, Grade 1: 3 (10) n (%)
  Palmar-plantar erythrodysesthesia syndrome, Grade 2: 1 (3) n (%)
  Palmar-plantar erythrodysesthesia syndrome, Grade 3: 1 (3) n (%)
  Palmar-plantar erythrodysesthesia syndrome, Grade 4: 0 n (%)
  Palmar-plantar erythrodysesthesia syndrome, Overall: 5 (17) n (%)
  QTc prolongation, Grade 1: 5 (17) n (%)
  QTc prolongation, Grade 2: 1 (3) n (%)
  QTc prolongation, Grade 3: 0 n (%)
  QTc prolongation, Grade 4: 0 n (%)
  QTc prolongation, Overall: 6 (20) n (%)
  Taste alteration, Grade 1: 5 (17) n (%)
  Taste alteration, Grade 2: 0 n (%)
  Taste alteration, Grade 3: 0 n (%)
  Taste alteration, Grade 4: 0 n (%)
  Taste alteration, Overall: 5 (17) n (%)
  Vomiting, Grade 1: 11 (37) n (%)
  Vomiting, Grade 2: 1 (3) n (%)
  Vomiting, Grade 3: 2 (7) n (%)
  Vomiting, Grade 4: 0 n (%)
  Vomiting, Overall: 14 (47) n (%)
  Weight loss, Grade 1: 3 (10) n (%)
  Weight loss, Grade 2: 1 (3) n (%)
  Weight loss, Grade 3: 0 n (%)
  Weight loss, Grade 4: 0 n (%)
  Weight loss, Overall: 4 (13) n (%)
  diarrhea, patients: 47%
  fatigue, patients: 53%
  hypophosphatemia, patients: 47%
  nausea, patients: 70%
  vomiting, patients: 47%
[1]; [2]
  Anemia, Grade 5: 0 n (%)
  Anorexia, Grade 5: 0 n (%)
  Chills, Grade 5: 0 n (%)
  Diarrhea, Grade 5: 0 n (%)
  Dry skin, Grade 5: 0 n (%)
  Fatigue, Grade 5: 0 n (%)
  Headache, Grade 5: 0 n (%)
  Hypokalemia, Grade 5: 0 n (%)
  Hypophosphatemia, Grade 5: 0 n (%)
  Nausea, Grade 5: 0 n (%)
  Pain in legs, Grade 5: 0 n (%)
  Palmar-plantar erythrodysesthesia syndrome, Grade 5: 0 n (%)
  QTc prolongation, Grade 5: 0 n (%)
  Taste alteration, Grade 5: 0 n (%)
  Vomiting, Grade 5: 0 n (%)
  Weight loss, Grade 5: 0 n (%)
